Data as given in patent US20040229947A1, “Method of treating hyperactive bladder using phenoxyacetic acid derivatives” (KISSEI PHARMACEUTICAL CO., LTD., priority 2003, published 2004).
Blank lines part the entries; values can stand above or below the compound they belong to.

How the values were obtained:
[1] = tested on: isolated atria; assay: Heart rate of isolated atrial preparations (beta1-AR-stimulated function); parameters: species or system cynomolgus monkey
Procedure: (§1) The detrusor of the cynomolgus monkey (both sexes) was isolated and dissected. Tracheal, atrial and urethral dissections were also prepared. Then the effect of (−)-2-[4-(2-{[(1S,2R)-2-hydroxy-2-(4-hydroxyphenyl)-1-methylethyl]amino}ethyl)-2,5-dimethylphenoxy] acetic acid on the tone of the detrusor preparation was tested. Carbachol-induced tonic contractions of the tracheal preparations, the heart rate of the atrial preparations and endothelin-1-induced tonic contractions of the urethral preparations were also investigated using the Magnus method.

[2] = tested on: isolated monkey detrusor; assay: Effects on the tone of the isolated monkey detrusor (Magnus method); details: isolated cynomolgus monkey detrusor; for EC50: Primates, read-out: EC50, reduction of the tone of the isolated monkey detrusor
Procedure: as §1

[3] = tested on: isolated urethra; assay: Endothelin-1-induced tonic contraction of isolated urethral preparations; parameters: species or system cynomolgus monkey
Procedure: as §1

[4] = tested on: isolated trachea; assay: Carbachol-induced tonic contraction of isolated tracheal preparations (beta 2-AR-stimulated function); parameters: species or system cynomolgus monkey; details: for effect on carbachol-induced tonic contraction of the isolated trachea: beta 2-AR-stimulated function
Procedure: as §1

[5] = tested on: spinal cord injury-induced overactive bladder; assay: Spinal cord injury-induced overactive bladder model, cystometrogram; type: in vivo, rat; details: intragastric, 10 mg/kg as free body; 1 hour after administration; FIG. 7
Procedure: In ether anesthetized rats, spinal transactions were performed at the level of Th9-Th10. Each rat was treated with amikacin 10 mg/body, i.m. for 7 days, and micturition management was done 2 times/day for 2 weeks to prevent over-distension of the bladder. About 6 weeks after the spinal cord operation, rats were anesthetized with pentobarbital sodium and each cannula (PE-50: Nihon Becton Dickinson) was implanted into the urinary bladder and stomach, tunneled subcutaneously, secured on the back of the neck and closed. Seven days after the cannula implantation, cystometrogram was performed. Saline was instilled into the urinary bladder at a rate of 12 mL/hour. The saline instillation was stopped every micturition. After the stable spontaneous small bladder contraction in filling phase was confirmed, ethyl (—)-2-[4-(2-{[(1S,2R)-2-hydroxy-2-(4-hydroxyphenyl)-1-methylethyl]amino}ethyl)-2,5-dimethylphenoxy] acetate hydrochloride (0 (vehicle) or 10 mg/kg as dose of free body) was administered intragastrically. The micturition parameter at 1 hour after the administration of ethyl (−)-2-[4-(2-{[(1S,2R)-2-hydroxy-2-(4-hydroxyphenyl)-1-methylethyl]amino}ethyl)-2,5-dimethylphenoxy] acetate hydrochloride was measured and was expressed as a percentage to that at the pre-administration (0 hour).

[6] = tested on: lower urinary tract partially obstructed overactive bladder; assay: Lower urinary tract partially obstructed rat overactive bladder model, cystometrogram; type: in vivo; details: intragastric
Procedure: Rats were anesthetized with pentobarbital sodium. After urethra was ligated with a tube (width: 1 mm) by thread, the tube was removed. Six weeks after the lower urinary tract operation, the implanted thread was removed, and each cannula was implanted into the urinary bladder and stomach, tunneled subcutaneously and secured on the back of the neck and closed. The next day, cystometrogram of freely-moved conscious rats were measured. Saline was instilled into the urinary bladder at a rate of 12 mL/hour. The saline instillation was stopped every micturition. After the stable spontaneous small bladder contraction in filling phase was confirmed, ethyl (−)-2-[4-(2-{[(1S,2R)-2-hydroxy-2-(4-hydroxyphenyl)-1-methylethyl]amino}ethyl)-2,5-dimethylphenoxy] acetate hydrochloride (0 (vehicle), 1 or 10 mg/kg as doses of free body) or tolterodine (10 mg/kg) was administered intragastrically. The micturition parameters at 1 hour after the administration of ethyl (−)-2-[4-(2-{[(1S,2R)-2-hydroxy-2-(4-hydroxyphenyl)-1-methylethyl]amino}ethyl)-2,5-dimethylphenoxy] acetate hydrochloride or tolterodine were measured and were expressed as a percentage to that at the pre-administration (0 hour).

[7] = tested on: PGE2-induced bladder hyperactivity; assay: Prostaglandin (PG) E2-induced rat overactive bladder model, cystometrogram in conscious rats; type: in vivo; details: intragastric, 0.1, 1 or 10 mg/kg as free body, 1, 2, 4 hours after administration
Procedure: Rats were anesthetized with pentobarbital sodium. Each cannula was implanted into the urinary bladder and stomach, tunneled subcutaneously and secured on the back of the neck and closed. Seven days after the cannula implantation, cystometrogram of the freely-moved conscious rats were measured. Saline was continuously instilled into the bladder at a rate of 6 mL/hour, and after the cystometric parameters were stabilized, PGE2 (60 μmol/L)-containing saline was instilled continuously instead of the saline into the bladder. After the stable shortening of the micturition interval was confirmed under the condition, ethyl(−)-2-[4-(2-{[(1S,2R)-2-hydroxy-2-(4-hydroxyphenyl) -1-methylethyl]amino}ethyl)-2,5-dimethylphenoxy] acetate hydrochloride (0 (vehicle), 0.1, 1 or 10 mg/kg as doses of the free body) was administered intragastrically. Cystometric parameters were measured for 4 hours after the administration and were expressed as a percentage to those at the pre-administration (0 hour).

EC50 [2]: 820 nM
SMILES: Cc1cc(OCC(=O)O)c(C)cc1CCN[C@@H](C)[C@H](O)c1ccc(O)cc1 [(−)-2-[4-(2-{[(1S,2R)-2-hydroxy-2-(4-hydroxyphenyl)-1-methylethyl]amino}ethyl)-2,5-dimethylphenoxy] acetic acid]
effect on heart rate of the isolated atria ([1]; beta1-AR-stimulated function): less effect | detrusor selectivity compared with the atria ([1]; detrusor versus atria): ~80 times | effect on endothelin-1-induced tonic contraction of the isolated urethra [3]: no effect | effect on carbachol-induced tonic contraction of the isolated trachea [4]: less effect | detrusor selectivity compared with the trachea ([4]; detrusor versus trachea): about 1200 times

SMILES: CCN(CC)CC#CCOC(=O)C(O)(c1ccccc1)C1CCCCC1 (centres unmarked) [oxybutynin]
relaxation of the isolated monkey detrusor [2]: No significant relaxation

SMILES: CCCOC(C(=O)OC1CCN(C)CC1)(c1ccccc1)c1ccccc1 [propiverine]
relaxation of the isolated monkey detrusor [2]: No significant relaxation

SMILES: CC(C)NCC(O)c1ccc(O)c(O)c1 (centres unmarked) [isoproterenol, reference compound]
EC50 [2]: 190 nM | effect on carbachol-induced tonic contraction of the isolated trachea [4]: reduced the carbachol-induced tonic contraction

SMILES: CCOC(=O)COc1cc(C)c(CCN[C@@H](C)[C@H](O)c2ccc(O)cc2)cc1C.Cl [Compound 1, ethyl (−)-2-[4-(2-{[(1S,2R)-2-hydroxy-2-(4-hydroxyphenyl)-1-methylethyl]amino}ethyl)-2,5-dimethyl-phenoxy] acetate hydrochloride]
frequency of spontaneous small bladder contraction in filling phase [5]: decreased the frequency | amplitude of spontaneous small bladder contractions in filling phase ([6]; 1 or 10 mg/kg as free body, 1 hour after administration, FIG. 8): decreased the amplitude | frequency of spontaneous small bladder contractions in filling phase ([6]; 1 or 10 mg/kg as free body, 1 hour after administration, FIG. 9): decreased | micturition pressure ([6]; 1 or 10 mg/kg as free body, 1 hour after administration, FIG. 10): did not affect the micturition pressure | potency on spontaneous small bladder contractions relative to tolterodine ([6]; tolterodine 10 mg/kg, FIGS. 8 and 9): stronger than that of tolterodine | micturition interval ([7]; FIGS. 1 to 3): prolonged the micturition interval | micturition volume ([7]; FIGS. 4 to 6): increased the micturition volume dose-dependently
